# Assay results published in US8283361B2 (AstraZeneca AB, priority 2008, dated 2012).
# Where a name gives a salt, the structure may show the parent alone.
# Molecular target: S. aureus GyrB ATPase (Staphylococcus aureus, UniProt P0A0K8)
# Assay: biochemical
# Conditions: compound at 1 μM; one value per test if tested more than once; 1 µM
# Procedure: S. aureus GyrB ATPase Inhibition Activity: Compounds may be tested for inhibition of S. aureus GyrB ATPase activity using an ammonium molybdate/malachite green-based phosphate detection assay (Lanzetta, P. A., L. J. Alvarez, P. S. Reinach, and O. A. Candia, 1979, 100: 95-97). Assays can be performed in multiwell plates in 30 μl reactions containing: 50 mM Hepes buffer pH 7.5, 75 mM ammonium acetate, 8.0 mM magnesium chloride, 0.5 mM ethylenediaminetetraacetic acid, 5% glycerol, 1.0 mM 1,4-Dithio-DL-threitol, 200 nM bovine serum albumin, 1.0 μg/m1 sheared salmon sperm DNA, 250 pM E. coli GyrA, 250 pM S. aureus GyrB, 250 μM ATP, and compound in dimethylsulfoxide. Reactions can be quenched with 30 μl of ammonium molybdate/malachite green detection reagent containing 1.2 mM malachite green hydrochloride, 8.5 mM ammonium molybdate tetrahydrate, and 1 M hydrochloric acid. […] An IC50 measurement of compound potency for each compound can be determined from reactions performed in the presence of 10 different compound concentrations.
# S. aureus GyrB ATPase, sequence (P0A0K8 whole entry): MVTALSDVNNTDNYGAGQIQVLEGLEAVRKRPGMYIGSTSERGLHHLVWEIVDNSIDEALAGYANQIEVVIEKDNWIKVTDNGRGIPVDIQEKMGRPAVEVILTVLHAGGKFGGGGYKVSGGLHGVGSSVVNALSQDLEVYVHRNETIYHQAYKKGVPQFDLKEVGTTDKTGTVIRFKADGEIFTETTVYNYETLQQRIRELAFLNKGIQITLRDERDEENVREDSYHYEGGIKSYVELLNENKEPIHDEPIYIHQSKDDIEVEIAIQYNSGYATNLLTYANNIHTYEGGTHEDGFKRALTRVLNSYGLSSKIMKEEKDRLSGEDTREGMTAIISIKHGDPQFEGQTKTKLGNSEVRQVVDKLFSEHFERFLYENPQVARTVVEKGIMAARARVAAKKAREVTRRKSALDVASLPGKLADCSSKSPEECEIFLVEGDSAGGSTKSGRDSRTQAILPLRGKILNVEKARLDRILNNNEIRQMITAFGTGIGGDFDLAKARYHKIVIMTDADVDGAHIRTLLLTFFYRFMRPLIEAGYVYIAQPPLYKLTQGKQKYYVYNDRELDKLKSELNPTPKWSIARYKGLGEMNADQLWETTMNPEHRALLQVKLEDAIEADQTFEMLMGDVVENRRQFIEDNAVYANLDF
# S. aureus GyrB ATPase, sequence (P0AES4 whole entry, further chain): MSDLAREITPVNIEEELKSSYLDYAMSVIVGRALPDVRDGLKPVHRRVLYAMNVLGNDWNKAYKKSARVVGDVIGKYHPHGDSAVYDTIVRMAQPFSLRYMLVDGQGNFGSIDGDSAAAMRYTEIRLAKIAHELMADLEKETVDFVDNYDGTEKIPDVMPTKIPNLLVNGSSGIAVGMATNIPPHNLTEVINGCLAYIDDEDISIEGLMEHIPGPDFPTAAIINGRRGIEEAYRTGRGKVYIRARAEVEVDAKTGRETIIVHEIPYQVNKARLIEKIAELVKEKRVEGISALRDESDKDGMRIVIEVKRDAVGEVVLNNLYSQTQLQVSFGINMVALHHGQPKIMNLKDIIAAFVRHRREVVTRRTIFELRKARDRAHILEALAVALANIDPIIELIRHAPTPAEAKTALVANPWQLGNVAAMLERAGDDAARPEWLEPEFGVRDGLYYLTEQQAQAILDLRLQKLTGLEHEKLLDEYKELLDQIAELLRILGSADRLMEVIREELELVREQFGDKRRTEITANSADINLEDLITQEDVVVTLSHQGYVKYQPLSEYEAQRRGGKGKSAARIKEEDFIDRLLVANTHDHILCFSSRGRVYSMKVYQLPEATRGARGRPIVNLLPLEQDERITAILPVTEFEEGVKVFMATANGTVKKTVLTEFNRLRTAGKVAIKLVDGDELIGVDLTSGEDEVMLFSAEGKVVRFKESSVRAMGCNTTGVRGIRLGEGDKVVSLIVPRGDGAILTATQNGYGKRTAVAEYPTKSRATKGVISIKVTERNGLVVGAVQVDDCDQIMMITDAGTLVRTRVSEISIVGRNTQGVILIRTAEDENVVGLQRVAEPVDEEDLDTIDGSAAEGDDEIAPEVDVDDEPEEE
row,Compound,% Inhibition of S. aureus GyrB ATPase [%]
1,"CCNC(=O)Nc1cc(-c2nc(C(F)(F)F)cs2)c(-c2ccc3c(c2)c(=O)c(C(=O)O)cn3[C@H](CO)CC(C)C)cn1 [Example 95, (S)-6-(6-(3-ethylureido)-4-(4-(trifluoromethyl)thiazol-2-yl)pyridin-3-yl)-1-(1-hydroxy-4-methylpentan-2-yl)-4-oxo-1,4-dihydroquinoline-3-carboxylic acid]",109

# Same assay, conditions: compound at 1 μM; one value per test if tested more than once; read-out: % Inhibition of S. aureus GyrB ATPase
row,Compound,inhibition at 1 µM [%]
1,"CCNC(=O)Nc1cc(-c2nc(C(F)(F)F)cs2)c(-c2ccc3c(c2)c(=O)c(C(=O)O)cn3[C@@H](CO)C(C)C)cn1 [Example 85, (R)-6-(6-(3-ethylureido)-4-(4-(trifluoromethyl)thiazol-2-yl)pyridin-3-yl)-1-(1-hydroxy-3-methylbutan-2-yl)-4-oxo-1,4-dihydroquinoline-3-carboxylic acid]",96
2,"CCNC(=O)Nc1cc(-c2nc(C(F)(F)F)cs2)c(-c2ccc3c(c2)c(=O)c(C(=O)O)cn3[C@@H](CC)CO)cn1 [Example 86, (S)-6-(6-(3-ethylureido)-4-(4-(trifluoromethyl)thiazol-2-yl)pyridin-3-yl)-1-(1-hydroxybutan-2-yl)-4-oxo-1,4-dihydroquinoline-3-carboxylic acid]",98
3,"CCCNC(=O)Nc1cc(-c2nc(C(F)(F)F)cs2)c(-c2ccc3c(c2)c(=O)c(C(=O)O)cn3[C@H](CO)CC(C)C)cn1 [Example 87, (S)-1-(1-hydroxy-4-methylpentan-2-yl)-4-oxo-6-(6-(3-propylureido)-4-(4-(trifluoromethyl)thiazol-2-yl)pyridin-3-yl)-1,4-dihydroquinoline-3-carboxylic acid]",96
4,"CCNC(=O)Nc1cc(-c2nc(C(F)(F)F)cs2)c(-c2ccc3c(c2)c(=O)c(C(=O)O)cn3C[C@@H]2CCCO2)cn1 [Example 88, (S)-6-(6-(3-ethylureido)-4-(4-(trifluoromethyl)thiazol-2-yl)pyridin-3-yl)-4-oxo-1-((tetrahydrofuran-2-yl)methyl)-1,4-dihydroquinoline-3-carboxylic acid]",90
5,"CCNC(=O)Nc1cc(-c2nc(C(F)(F)F)cs2)c(-c2ccc3c(c2)c(=O)c(C(=O)O)cn3CCC2CCN(C)CC2)cn1 [Example 89, 6-(6-(3-ethylureido)-4-(4-(trifluoromethyl)thiazol-2-yl)pyridin-3-yl)-1-(2-(1-methylpiperidin-4-yl)ethyl)-4-oxo-1,4-dihydroquinoline-3-carboxylic acid]",91
6,"CCNC(=O)Nc1cc(-c2nc(C(F)(F)F)cs2)c(-c2ccc3c(c2)c(=O)c(C(=O)O)cn3CC2CCOCC2)cn1 [Example 90, 6-(6-(3-ethylureido)-4-(4-(trifluoromethyl)thiazol-2-yl)pyridin-3-yl)-4-oxo-1-((tetrahydro-2H-pyran-4-yl)methyl)-1,4-dihydroquinoline-3-carboxylic acid]",97
7,"CCNC(=O)Nc1cc(-c2nc(C(F)(F)F)cs2)c(-c2ccc3c(c2)c(=O)c(C(=O)O)cn3C(CC)CO)cn1 (stereo not drawn) [Example 93, 6-(6-(3-ethylureido)-4-(4-(trifluoromethyl)thiazol-2-yl)pyridin-3-yl)-1-(1-hydroxybutan-2-yl)-4-oxo-1,4-dihydroquinoline-3-carboxylic acid]",95
8,"CCNC(=O)Nc1cc(-c2nc(C(F)(F)F)cs2)c(-c2ccc3c(c2)c(=O)c(C(=O)O)cn3CC2CCN(C)CC2)cn1 [Example 94, 6-(6-(3-ethylureido)-4-(4-(trifluoromethyl)thiazol-2-yl)pyridin-3-yl)-1-((1-methylpiperidin-4-yl)methyl)-4-oxo-1,4-dihydroquinoline-3-carboxylic acid]",95
9,"CCNC(=O)Nc1cc(-c2nc(C(F)(F)F)cs2)c(-c2ccc3c(c2)c(=O)c(C(=O)NC)cn3[C@H](CO)CC(C)C)cn1 [Example 96, (S)-6-(6-(3-ethylureido)-4-(4-(trifluoromethyl)thiazol-2-yl)pyridin-3-yl)-1-(1-hydroxy-4-methylpentan-2-yl)-N-methyl-4-oxo-1,4-dihydroquinoline-3-carboxamide]",95
10,"CCNC(=O)Nc1cc(-c2nc(C(F)(F)F)cs2)c(-c2ccc3c(c2)c(=O)c(C(=O)O)cn3C2(CO)CCOCC2)cn1 [Example 122, 6-(6-(3-ethylureido)-4-(4-(trifluoromethyl)thiazol-2-yl)pyridin-3-yl)-1-(4-(hydroxymethyl)tetrahydro-2H-pyran-4-yl)-4-oxo-1,4-dihydroquinoline-3-carboxylic acid]",95
11,"CCNC(=O)Nc1cc(-c2nc(C(F)(F)F)cs2)c(-c2ccc3c(c2)c(=O)c(C(=O)O)cn3CC2CCCCN2)cn1 (stereo not drawn) [Example 123, 6-(6-(3-ethylureido)-4-(4-(trifluoromethyl)thiazol-2-yl)pyridin-3-yl)-4-oxo-1-(piperidin-2-ylmethyl)-1,4-dihydroquinoline-3-carboxylic acid]",95
12,"CCNC(=O)Nc1cc(-c2nc(C(F)(F)F)cs2)c(-c2ccc3c(c2)c(=O)c(C(=O)O)cn3Cc2ccncc2)cn1 [Example 124, 6-(6-(3-ethylureido)-4-(4-(trifluoromethyl)thiazol-2-yl)pyridin-3-yl)-4-oxo-1-(pyridin-4-ylmethyl)-1,4-dihydroquinoline-3-carboxylic acid]",87
13,"CCNC(=O)Nc1cc(-c2nc(C(F)(F)F)cs2)c(-c2ccc3c(c2)c(=O)c(C(=O)O)cn3Cc2cn(C)cn2)cn1 [Example 125, 6-(6-(3-ethylureido)-4-(4-(trifluoromethyl)thiazol-2-yl)pyridin-3-yl)-1-((1-methyl-1H-imidazol-4-yl)methyl)-4-oxo-1,4-dihydroquinoline-3-carboxylic acid]",93
14,"CCNC(=O)Nc1cc(-c2nc(C(F)(F)F)cs2)c(-c2ccc3c(c2)c(=O)c(C(=O)O)cn3C(C)CN(C)C)cn1 (stereo not drawn) [Example 126, 1-(1-(dimethylamino)propan-2-yl)-6-(6-(3-ethylureido)-4-(4-(trifluoromethyl)thiazol-2-yl)pyridin-3-yl)-4-oxo-1,4-dihydroquinoline-3-carboxylic acid]",117
15,"CCNC(=O)Nc1cc(-c2nc(C(F)(F)F)cs2)c(-c2ccc3c(c2)c(=O)c(C(=O)O)cn3CC2CCCCN2C)cn1 (stereo not drawn) [Example 127, 6-(6-(3-ethylureido)-4-(4-(trifluoromethyl)thiazol-2-yl)pyridin-3-yl)-1-((1-methylpiperidin-2-yl)methyl)-4-oxo-1,4-dihydroquinoline-3-carboxylic acid, formic acid salt]",117
16,"CCNC(=O)Nc1cc(-c2nc(C(F)(F)F)cs2)c(-c2ccc3c(c2)c(=O)c(C(=O)NC2CCOCC2)cn3C(COC)COC)cn1 [Example 128, 1-(1,3-dimethoxypropan-2-yl)-6-(6-(3-ethylureido)-4-(4-(trifluoromethyl)thiazol-2-yl)pyridin-3-yl)-4-oxo-N-(tetrahydro-2H-pyran-4-yl)-1,4-dihydroquinoline-3-carboxamide]",92
17,"CCNC(=O)Nc1cc(-c2nc(C(F)(F)F)cs2)c(-c2ccc3c(c2)c(=O)c(C(=O)NC)cn3C(COC)COC)cn1 [Example 129, 1-(1,3-dimethoxypropan-2-yl)-6-(6-(3-ethylureido)-4-(4-(trifluoromethyl)thiazol-2-yl)pyridin-3-yl)-N-methyl-4-oxo-1,4-dihydroquinoline-3-carboxamide]",93
